“Also recorded” adds a separate entry of the source.
Experiments:
βPDGFR = biological target: T1, βPDGFR (Homo sapiens, UniProt P09619); test: Tyrosine phosphorylation of the βPDGFR in TGFβ- or PDGF-treated F cells; type: cell-based; details: Fβ cells; 1 ng/ml TGFβ1
T1 construct: expressed in transfected cells; host or cells: F cells (mouse embryo fibroblasts lacking both PDGFRs), giving Fβ

FCX^2, Fα and Fβ cells = test: Collagen gel contraction assay of cells with no PDGFRs, αPDGFR or βPDGFR; type: cell-based, mouse; details: 1 ng/ml TGFβ1; 24, 48, 72 hours
Method: The contraction assay was based on a previously described reference, Skuta, G. et al. (1999) J. Biol. Chem. 274:30163, with the following modifications. Fα cells were suspended in 1.5 mg/ml of neutralized collagen I (Cohesion vitrogen 100, Palo Alto, Calif.) at a density of 10^6 cells/ml, and were transferred into the 24-well plate (Falcon, Franklyn Lakes, N.J.) that had been preincubated with phosphate-buffer saline (PBS) with 5 mg/ml of bovine serum albumin (BSA) overnight. The gel was solidified by incubating at 37° C. for 90 minutes, and then the well was flooded with DMEM+5 mg/ml of BSA supplemented with an amount of vitreous such that the final concentration of vitreous in the culture medium was 1, 5 or 20%. […] The media was replaced every 24 hours and the gel diameter was measured after 48 hours. The extent of contraction was calculated by subtracting the diameter of the well at 48 hours from the initial diameter (15 mm). […]
The experiments described in Example 9 (FIG. 7B) were repeated with cells that express the βPDGFR (Fβ) instead of the αPDGFR, or no PDGFRs (FCX^2). Contraction was scored at the 48 hours time point. […]
To more directly test whether TGFβ could moderate contraction of fibroblasts via the αPDGFR, the response of the three cell lines to purified TGFβ was examined. […] The gel diameter was measured after 24, 48, or 72 hours, and the media was replaced every day.

αPDGFR = biological target: T2, αPDGFR (Homo sapiens, UniProt P16234); test: Tyrosine phosphorylation of the αPDGFR in TGFβ- or PDGF-treated F cells; type: cell-based; details: Fα cells; 50 ng/ml PDGF-BB 5 minutes or 1 ng/ml TGFβ1 5 minutes to 8 hours
T2 construct: expressed in transfected cells; host or cells: F cells (SV-40 immortalized mouse embryo fibroblasts lacking both PDGFRs), giving Fα
Method: To show the effect of TGFβ on αPDGFR, the tyrosine phosphorylation state of the αPDGFR was assayed in TGFβ-treated cells. The F cells with or without PDGFR were grown to 80% confluent and then starved with DMEM containing 1% FBS for 20 hours. Cells were exposed at 37° C. for 5 minutes to either 50 ng/ml of PDGF-BB; with 1 ng/ml of TGFβ1 for 5 minutes, 1 hour, 2 hours, 4 hours, 6 hours or 8 hours; or were left unstimulated. After treatment the cells were washed twice with H/S (20 mM Hepes, pH 7.4, 150 mM NaCl) and then lysed in EB (10 mM Tris-HCl, pH 7.4, 5 mM EDTA, 50 mM NaCl, 50 mM NaF, 1% Triton-X 100, 0.1% BSA, 20 μg/ml aprotinin, 2 mM Na3VO4, 1 mM phenylmethylsulfonyl fluoride; PMSF). Lysates were centrifuged for 15 minutes at 13,000×g, the pellet was discarded and the soluble fraction was used as the total cell lysate. The protein concentration was measured using protein assay kit (Pierce, Rockfield, Ill.) following the manufacture's instructions.
Receptors were immunoprecipitated from the soluble fraction with the 27P antibody (described above). Immune complex was bound to formalin-fixed membranes of Staphylococcus aureus, spun through an EB sucrose gradient, and washed twice with EB, then with PAN (10 mM Pipes, pH 7.0, 100 mM NaCl, 1% aprotinin)+0.5% Nonidet P-40 (NP-40), and finally with PAN. The samples were resuspended in PAN before using for kinase assay or western blotting. […]

rabbit eyes = details: previously found (Rosenkranz et al. 2000); cited from earlier work
F cells = test: Collagen gel contraction assay of F cells expressing αPDGFR mutants; type: cell-based, mouse; details: PDGF-BB (50 ng/ml), 48 hours
Method: The contraction assay was based on a previously described reference, Skuta, G. et al. (1999) J. Biol. Chem. 274:30163, with the following modifications. Fα cells were suspended in 1.5 mg/ml of neutralized collagen I (Cohesion vitrogen 100, Palo Alto, Calif.) at a density of 10^6 cells/ml, and were transferred into the 24-well plate (Falcon, Franklyn Lakes, N.J.) that had been preincubated with phosphate-buffer saline (PBS) with 5 mg/ml of bovine serum albumin (BSA) overnight. The gel was solidified by incubating at 37° C. for 90 minutes, and then the well was flooded with DMEM+5 mg/ml of BSA supplemented with an amount of vitreous such that the final concentration of vitreous in the culture medium was 1, 5 or 20%. The gels were incubated at 37° C. with 5% CO2. The initial gel diameter was 15 mm. The media was replaced every 24 hours and the gel diameter was measured after 48 hours. The extent of contraction was calculated by subtracting the diameter of the well at 48 hours from the initial diameter (15 mm). Each experimental condition was assayed in triplicate, and at least three independent experiments were performed. Unpaired t-test was performed to detect statistic difference in contraction assay.
To determine the signaling pathways that drive contraction, cells expressing the αPDGFR mutants were subjected to the collagen gel contraction assay described above. Accordingly, F cells expressing the indicated αPDGFRs were subjected to the collagen gel assay in the presence of buffer, PDGF-BB (50 ng/ml), TGFβ1 (1 ng/ml), or FBS (10%). The data presented are the mean±standard deviation measured at the 48 hours time point. Each experimental condition was assayed in triplicate, and at least 3 independent experiments were performed.

PLCγ = test: Co-immunoprecipitation of PLCγ with αPDGFR mutants in F cells; type: cell-based, mouse; details: 50 ng/ml PDGF-BB, 5 minutes
Method: (§1) The ability of the αPDGFR mutants to undergo ligand dependent tyrosine phosphorylation and to associate with signaling enzymes was then tested. F cells expressing various αPDGFR mutants were grown to subconfluence and serum starved overnight. Cells were either left resting (−) or stimulated with 50 ng/ml PDGF-BB (+) for 5 minutes, and lysed. The αPDGFR was immunoprecipitated with αPDGFR antibody, as described above, and the resulting immunoprecipitates were resolved by 7.5% SDS-PAGE and transferred onto Immobilon. The segment of the blot containing the αPDGFR was first blotted with anti-phosphotyrosine antibodies, then stripped and reprobed with an anti-αPDGFR antibody. Portions of the membrane that contained the proteins of the appropriate molecular mass were immunoblotted for PLCγ, the regulatory subunit of PI3K (p85), or SHP-2. Crude rabbit anti-p85 antibody is from Dr. A. Toker (Beth Israel Hospital/Harvard Medical School, Boston, Mass.). The monoclonal antibodies against PLCγ and SHP-2 were purchased from Upstate Biotechnology Inc.

SHP-2 = test: Co-immunoprecipitation of SHP-2 with αPDGFR mutants in F cells; type: cell-based, mouse; details: 50 ng/ml PDGF-BB, 5 minutes
Method: as §1

PI3K (p85) = test: Co-immunoprecipitation of the regulatory subunit of PI3K (p85) with αPDGFR mutants in F cells; type: cell-based, mouse; details: 50 ng/ml PDGF-BB, 5 minutes
Method: as §1

Src family kinases = details: cited from earlier work

T1 sequence (P09619 33-1106): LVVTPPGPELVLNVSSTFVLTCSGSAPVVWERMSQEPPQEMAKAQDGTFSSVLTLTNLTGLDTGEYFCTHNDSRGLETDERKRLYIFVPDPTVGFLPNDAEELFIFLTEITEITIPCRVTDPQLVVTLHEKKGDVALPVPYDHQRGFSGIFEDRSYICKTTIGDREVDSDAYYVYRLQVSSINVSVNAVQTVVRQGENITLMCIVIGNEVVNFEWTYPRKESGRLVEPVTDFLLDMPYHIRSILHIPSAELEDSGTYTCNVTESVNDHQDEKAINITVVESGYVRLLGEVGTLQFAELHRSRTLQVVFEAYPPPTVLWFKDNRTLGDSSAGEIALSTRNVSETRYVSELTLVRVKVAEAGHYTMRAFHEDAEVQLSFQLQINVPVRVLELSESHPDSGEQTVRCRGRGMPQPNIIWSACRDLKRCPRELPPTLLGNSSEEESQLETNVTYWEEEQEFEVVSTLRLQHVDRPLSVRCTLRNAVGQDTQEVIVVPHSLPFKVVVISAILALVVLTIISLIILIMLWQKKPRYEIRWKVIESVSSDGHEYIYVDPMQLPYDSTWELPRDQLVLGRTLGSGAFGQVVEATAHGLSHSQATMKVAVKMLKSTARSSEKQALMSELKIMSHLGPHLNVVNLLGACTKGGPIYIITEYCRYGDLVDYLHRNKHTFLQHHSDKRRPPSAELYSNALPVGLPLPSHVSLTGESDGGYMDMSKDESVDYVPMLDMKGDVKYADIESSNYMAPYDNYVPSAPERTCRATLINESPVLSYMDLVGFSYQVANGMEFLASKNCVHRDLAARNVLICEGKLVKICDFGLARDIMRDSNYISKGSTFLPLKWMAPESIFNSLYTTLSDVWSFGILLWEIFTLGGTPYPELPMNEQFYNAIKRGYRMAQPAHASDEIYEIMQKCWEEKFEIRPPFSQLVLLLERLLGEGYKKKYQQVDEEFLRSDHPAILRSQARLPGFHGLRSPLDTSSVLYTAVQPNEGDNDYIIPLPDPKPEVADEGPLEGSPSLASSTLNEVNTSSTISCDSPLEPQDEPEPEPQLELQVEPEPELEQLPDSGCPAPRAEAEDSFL
T2 sequence (P16234 24-1089): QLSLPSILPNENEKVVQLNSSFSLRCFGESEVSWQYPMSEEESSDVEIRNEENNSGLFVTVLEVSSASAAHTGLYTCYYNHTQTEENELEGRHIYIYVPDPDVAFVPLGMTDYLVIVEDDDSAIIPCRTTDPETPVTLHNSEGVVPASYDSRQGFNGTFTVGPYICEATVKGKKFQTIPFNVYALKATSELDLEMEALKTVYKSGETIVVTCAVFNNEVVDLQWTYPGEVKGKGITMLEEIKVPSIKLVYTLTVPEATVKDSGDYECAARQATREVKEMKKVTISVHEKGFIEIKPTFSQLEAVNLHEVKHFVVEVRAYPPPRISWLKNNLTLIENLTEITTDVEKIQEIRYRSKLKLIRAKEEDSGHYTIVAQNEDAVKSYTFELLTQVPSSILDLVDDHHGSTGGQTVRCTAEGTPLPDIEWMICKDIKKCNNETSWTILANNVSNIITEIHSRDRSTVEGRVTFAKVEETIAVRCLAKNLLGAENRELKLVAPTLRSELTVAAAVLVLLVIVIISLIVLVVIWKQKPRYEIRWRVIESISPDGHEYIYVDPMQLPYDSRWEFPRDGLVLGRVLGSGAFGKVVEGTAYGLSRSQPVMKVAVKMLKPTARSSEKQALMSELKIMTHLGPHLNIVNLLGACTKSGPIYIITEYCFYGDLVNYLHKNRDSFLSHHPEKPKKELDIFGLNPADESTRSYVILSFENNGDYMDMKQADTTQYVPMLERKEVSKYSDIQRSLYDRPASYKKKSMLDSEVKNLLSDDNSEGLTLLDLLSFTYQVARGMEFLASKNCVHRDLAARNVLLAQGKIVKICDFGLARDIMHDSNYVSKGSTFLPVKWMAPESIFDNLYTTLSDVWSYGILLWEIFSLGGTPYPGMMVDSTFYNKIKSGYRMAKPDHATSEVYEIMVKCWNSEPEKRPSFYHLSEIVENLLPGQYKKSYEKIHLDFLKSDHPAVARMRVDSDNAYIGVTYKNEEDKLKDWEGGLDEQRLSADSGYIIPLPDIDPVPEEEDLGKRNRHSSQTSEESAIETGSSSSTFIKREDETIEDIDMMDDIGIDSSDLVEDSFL

Substance	tyrosine phosphorylation of the βPDGFR (βPDGFR)	TGFβ-induced contraction (FCX^2, Fα and Fβ cells)	tyrosine phosphorylation of the αPDGFR (αPDGFR)	potential to induce PVR (rabbit eyes)	PDGF-dependent contraction (F cells)	recruitment or activation of PLCγ (Properties) (PLCγ)	recruitment of SHP-2 (Properties) (SHP-2)	recruitment of PI3K / p85 (Properties) (PI3K (p85))	recruitment or activation of Src family kinases (Properties) (Src family kinases)
TGFβ: recombinant human TGFβ1 purchased from R & D systems	very modest or undetectable tyrosine phosphorylation	induced contraction of the Fα cells to a much greater extent than either the Fβ cells or the cells that do not express any PDGFR	increased phosphorylation of the αPDGFR						
F72/74: αPDGFR mutant, Tyr to Phe substitution at 572 and 574				induced PVR with slightly accelerated kinetics	no effect on contraction	bind all of these signaling enzymes	bind all of these signaling enzymes	bind all of these signaling enzymes	selectively fails to associate with Src family kinases; also recorded: Fails to recruit or activate
